Consider 2 molecules from paper PMC7795597 (2020).

Structures are written as SMILES.

For assay [1], the system named is kit2-kit* (DNA, G4) CGGGCGGGCGCGAGGGAGGGGAGGCGAGGAGGGGCGTGGCCGGC
In words: CD titration. The following applies: K+ (150 mM in Methods, 100 mM in Figure S3 legend); 10 mM Tris, pH 7.5, 25 °C; 4 µM DNA.

The test system of assay [2] is kit* (DNA, G4) GGCGAGGAGGGGCGTGGCCGGC
The experiment in a line: CD titration. The settings on record: K+ (150 mM in Methods, 100 mM in Figure S3 legend); 10 mM Tris, pH 7.5, 25 °C; 4 µM DNA.

For assay [3] the test system is unchanged. The experiment in a line: SPR steady state. The settings on record: 150 mM K+; 10 mM Tris, pH 7.5, 25 °C; apparent; one-site plus non-specific fit; DMSO < 1%.
For assay [4], the system named is kit*5AP (DNA, G4, 2-aminopurine at 5 (replaces A)) GGCGAGGAGGGGCGTGGCCGGC
In words: 2-aminopurine fluorescence titration. The settings on record: 150 mM K+; 10 mM Tris, pH 7.5, 25 °C; apparent; 0.5 µM DNA, single-site fit.

The subject of assay [5] is kit*8AP (DNA, G4, 2-aminopurine at 8 (replaces A)) GGCGAGGAGGGGCGTGGCCGGC
The experiment in a line: 2-aminopurine fluorescence titration. The following applies: 150 mM K+; 10 mM Tris, pH 7.5, 25 °C; apparent; 0.5 µM DNA, single-site fit.

As to `C(=NNC1=NCCN1)c1cccc2cc3cccc(C=NNC4=NCCN4)c3cc12`, the binding entry in assay [1] and in assay [2] was “yes” each time. Moreover, the Kd in assay [3] was found to be 6710 ± 1260 nM; in assay [4], 2240 ± 170 nM; in assay [5] it was 1780 ± 150 nM.
Turning to `NCCCC[C@H](N)C(=O)NCCC(=O)Nc1cccc2c1C(=O)c1cccc(NC(=O)CCNC(=O)[C@@H](N)CCCCN)c1C2=O`, the binding result in assay [1] and in assay [2] was “yes” in each case. For the same molecule, the Kd came out at 510 ± 90 nM in assay [3], 320 ± 20 nM in assay [4] and 310 ± 20 nM in assay [5].
